According to US20150258043A1, “USE OF SPHINGOID LONG CHAIN BASES AND THEIR ANALOGS IN TREATING AND PREVENTING BACTERIAL INFECTIONS” (YEDA RESEARCH AND DEVELOPMENT CO. LTD., priority 2012, published 2015):
Entries after “also recorded” stand apart in the source; their conditions may differ. Read-outs that look alike come from different tables or passages of the source.

Experiments:
P. aeruginosa strain 762 = assay: Effect of LCBs on P. aeruginosa growth in vitro (colony counts); format: cell-based, Pseudomonas aeruginosa; conditions: Pseudomonas aeruginosa
Procedure: P. aeruginosa strain 762 or ATCC 27853 were grown in LB medium at 37° C. until the early logarithmic phase (OD550 0.2). Bacteria were then diluted in PBS to a concentration of 5×10^3 CFU/ml. Stock solutions of sphingolipids (5 mM in 7.5% n-Octyl-β-D-Glucopyranoside (OGP) or in DMSO were prepared by sonication. Sphingolipids were added to the bacteria (0.1-50 μM in 0.075% OGP or 1% DMSO). Bacteria were incubated with sphingolipids for 2 hr at 37° C. and a sample of 200 μl bacteria solution were plated on LB agar plates, incubated overnight at 37° C. and colonies were counted.
The direct effect of sphingosine and other sphingoid long chain bases (LCBs) on the growth of P. aeruginosa was examined in vitro. Bacteria were incubated with a variety of LCBs and the EC50 values on bacterial growth were determined (Table 1).

[1] = test system: P. aeruginosa strains 762, PA14 and ATCC 27853; assay: Pulmonary P. aeruginosa infection of CF and CerS2 null mice, inhalation treatment (bacteria in lung, sickness score); format: in vivo, mouse; conditions: CF and CerS2 null mice; inhalation (125 μM) 1 h before or 1 h after intranasal infection with 1×10^8 CFU
Procedure: (A,B) The number of bacteria in the lungs and the overall sickness score (C,D) of WT, CerS2 null and CF mice 3-4 h after intranasal infection with 1×10^8 CFU of P. aeruginosa strains 762 (A,C) and CF mice with strains PA14 and ATCC 27853. Mice were inhaled with 0.9% NaCl or acid ceramidase 1 h prior (b.i.) to infection, or with sphingosine or FTY720 1 h before (b.i.) or 1 h after (a.i.) infection. Sickness score 4, severely affected (unresponsive animal); score 3 affected, (heavy breathing, low body temperature, ruffled fur) score 2, moderately affected (ruffled fur, heavy breathing); score 1, slightly affected (ruffled fur); score 0, unaffected (healthy appearance). Data are means±s.d., n=4.
Pulmonary infection of CF or CerS2 mice was achieved by intranasal application of P. aeruginosa strains 762, ATCC 27853 or PA14. Mice inhaled acid ceramidase, sphingosine, FTY720 or a combination of sphingosine and ceramide 1 hr before or after pulmonary infection. The number of bacteria in the lung was determined by culturing aliquots of lysed lungs on agar plates. Clinical symptoms of the infection were scored.
Inhalation was performed with a PARI Boy SX nebulizer (PARI GmbH, Starnberg, Germany). This nebulizer generates a fine aerosol mist by pumping the fluid with an air jet. The mice inhaled the aerosol via a mask that is part of an oral inhalation device for children (LL-Nebulizer); the mask was clipped at the sides to cover only the mouse's nose and the surrounding part of the face. […]
P. aeruginosa were grown for 14 to 14.5 h on fresh tryptic soy agar (TSA) plates (Becton Dickinson Biosciences, Germany). […] The bacterial OD was determined, and the bacteria were diluted in prewarmed H/S to a concentration of 1×10^8 CFU per 20 μL. […]
Lungs were removed, homogenised and lysed for 10 min in 5 mg/ml saponin to release intracellular bacteria. […] Bacterial counts (CFU) were counted after 18 h.

P. aeruginosa = assay: Sytox green staining (membrane permeabilization of bacteria); format: cell-based, Pseudomonas aeruginosa; conditions: 50 μM in 1% DMSO, 30 min
Procedure: FIGS. 4A-D. The ceramide/sphingosine ratio regulates P. aeruginosa growth. (A) Representative image of two independent experiments (left hand panel) after addition of Sytox green (1 μM) for 30 min in the absence or presence of 50 μM sphingosine or 50 μM C16-ceramide (C16-Cer) in 1% DMSO. Fluorescent and thus permeabilised bacteria were quantified (right hand panel). (B-D) The inhibitory effect of sphingosine on the growth of P. aeruginosa strain 762 is decreased in vitro and in vivo by C16-ceramide. (B) Bacteria were incubated with 10 μM sphingosine, and increasing concentrations of C16-ceramide, and growth was determined by counting colony forming unit (CFU) after 24 hrs growth on LB agar plates. Number of bacteria in the lung (C) and sickness score (D) of CF mice or WT mice inhaled with either sphingosine or a combination of sphingosine and C16-ceramide 1 h before (b.i.) with 10^8 P. aeruginosa CFU strain 762. Data are means±s.d., n=3 in (A,B) and n=4 in (C,D).
Bacteria at early logarithmic phase were incubated in the presence or absence of sphingosine or C16-ceramide (C16-cer) (50 μM in 1% DMSO) for 30 minutes at 37° C. […] Sample were examined under fluorescence microscope, and bacteria were counted both in bright field and under green fluorescent filter in two independent experiments.

[2] = superscript reference marks; cited from earlier work

## CCCCCCCCCCCCC/C=C/[C@@H](O)[C@@H](N)CO (stereo in doubt) [D-erythro-Sphingosine, (2S,3R)-2-aminooctadec-4-ene-1,3-diol]
P. aeruginosa strain 762; 762, Table 3, Example 3, method of Example 2, n=3 for each analog, given as ranges, read-out: EC50
  EC50: 0.5 to 1 µM
P. aeruginosa strain 762; P. aeruginosa strain 762, 2 hrs at 37° C. in 0.075% OGP, colonies counted, at least 3 independent experiments, read-out: EC50 (μM) ± S.D.
  EC50: 0.5 ± 0.1 µM
[1]
  protection from pulmonary P. aeruginosa infection: completely protected CF and CerS2 null mice from P. aeruginosa infection and even eliminated an existing infection; also recorded: rescue CF and CerS2 null mice from pulmonary P. aeruginosa infection; also recorded: prevents pulmonary P. aeruginosa infection
P. aeruginosa
  Sytox green fluorescence of bacteria: large increase in fluorescence
[2]
  pK (in PBS): 6.7^1,2
